Measurements from ChEMBL document CHEMBL5344465, “Innovations in Pharmacology: Enhancing Bioavailability and Efficacy through Novel Compositions” (ACS Med Chem Lett, 2024).
The source made the active and inactive calls.

Columns and labels:
Format in all cases: functional, cell-based
A 172 [1] = assay: Neuroprotective activity against human A-172 cells assessed as effect on BDNF level
[2] = system: Small intestinal epithelial cell; assay: Antiinflammatory activity against TNFalpha/INFgamma induced human small intestinal epithelial cells assessed as reduction in IL-6 level
[3] = system: Small intestinal epithelial cell; assay: Antiinflammatory activity against TNFalpha/INFgamma induced human small intestinal epithelial cells assessed as reduction in COX-2 level
A 172 [4] = assay: Neuroprotective activity against human A-172 cells assessed as effect on GABA level

Measured: Activity

CN(C)CCc1c[nH]c2cccc(OP(=O)(O)O)c12
active: all assays above

C=CCc1ccc(O)c(OC)c1
active: all assays above
